Row | Compound | melting point [°C]
1 | CCOC(=O)NC(=O)C(=NNc1cc(Cl)c(C(C)(C)C#N)c(Cl)c1)C(=O)NC(=O)OCC | 212
2 | Cc1ccc2c(c1)N(CC(=O)c1ccccc1C)C(=O)C(NC(=O)Nc1ccc(Cl)c(C(=O)O)c1)CN2C(=O)C(C)(C)C (centres undefined) | 178 to 180
3 | CC(=O)c1ccc(Nc2cccc(Br)c2)c([N+](=O)[O-])c1 | 142 to 144
4 | Nc1ccc(S(=O)(=O)c2cc(N)nc(Br)c2)cc1 | 204 to 205
5 | O=C(Nc1ccc2cc(CN3CCCC3)ccc2c1)c1ccc(-c2ccc(Cl)cc2)cc1 | 214 to 217
6 | O=C(c1ccc(Cl)cc1)N1CCc2nnc(Cl)cc2C1 | 170 to 172
7 | COC(=O)C=C1CN=C(c2ccccc2Cl)c2cc(Cl)ccc2N1 | 154 to 158
8 | O=C1NC(=O)C(O)(c2c[nH]c3ccc(Br)cc23)C(=O)N1 | > 250
9 | O=C(O)c1ccccc1COc1ccccc1Br | 175 to 177
10 | O=C(O)C(=O)c1ccc(OCC(=O)c2cccc3ccccc23)cc1 | 141 to 143
11 | CCC(CC)Nc1cc(C)nc(Oc2c(C)cc(C)cc2C)c1C(=O)OC | 98 to 102
12 | CC(C)(C)Oc1ccc(C(=O)N[C@H]2CC[C@H](CCN3CCN(c4nccc5c4OCC5)CC3)CC2)cc1 | 168
13 | Cc1nc2cc(C(=O)NC(C)C)c(NC(=O)c3cc(C(F)(F)F)nn3-c3ncccc3Cl)c(Cl)c2nc1C | 243 to 244
14 | O=C(O)CCC(c1cc(F)ccc1F)S(=O)(=O)c1ccc(Cl)cc1 (centres undefined) | 157 to 158
15 | N#CCc1ccc(C2=CCCCC2)cc1 | 71 to 73
16 | CC(C)C(C)NC1=Nc2ccc(Cl)cc2S(=O)(=O)N1C (centres undefined) | 102 to 105
17 | CC(C)(C)OC(=O)CCP(Br)(c1ccccc1)(c1ccccc1)c1ccccc1 | 190
18 | COc1cccc(OC)c1-c1cc(C(=O)NC2(C(=O)O)C3CC4CC(C3)CC2C4)nn1-c1ccnc2cc(Cl)ccc12 (centres undefined) | > 260
19 | Nc1ccc(Cl)cc1S | 70 to 72
20 | NCCCCCCCNC(=O)OCc1ccccc1 | 78 to 80
21 | NC(=O)Cn1c(-c2ccc(Br)o2)nc2cccnc21 | > 250
22 | CC(=O)SCC(Cc1ccccc1)C(=O)Nc1ccc(C(=O)OCc2ccccc2)cc1 (centres undefined) | 139 to 140
23 | CC(=O)Cc1cc2[nH]c(=O)oc2cc1Br | 160 to 162
24 | CCCCCN(CCC12CC3CC(CC(C3)C1)C2)C(=O)NCC(C)(C)Cc1ccncc1 | 82.5 to 84.9
25 | COC(=O)C1=Cc2cc(Br)ccc2N2CCCC2C1 (centres undefined) | 136 to 139

Row | Compound | melting point [°C]
26 | COc1cc(C(=O)N[C@@H]2CCN(C)C2)ccc1Nc1ncc2c(n1)N(C1CCCCC1)CC(F)(F)C(=O)N2C | 98 to 99
27 | Cc1nc(C(O)(c2nc(C)c(C)s2)C(C)(C)C)sc1C | 91 to 92
28 | CCCCCCCCS(=O)(=O)Nc1ccccc1Oc1ccccc1C(=O)O | 100 to 102
29 | CCCCOC(=O)C=Cc1c(-c2ccccc2)nn2ccccc12 | 80 to 82
30 | CCc1[nH]n(C2CCCC2)c2nc(-c3cccc(OCC(=O)O)c3)nc(=O)c1-2 | 299 to 300
31 | CCOC(=O)CN1C(=O)[C@@H](NC(=O)OC(C)(C)C)CCc2ccccc21 | 99 to 101
32 | CCCCCc1ccc(-c2ccc(-c3nc(N)nc(N)n3)cc2)cc1 | 242 to 244
33 | CN(C)Cc1ccccc1-c1ccc(N2CCc3c(C(F)(F)F)nn(-c4cccc(C(N)=O)c4)c3C2=O)cc1 | 259
34 | CCCC(C)C(=O)N1CC(NC(=O)Nc2cccc(C(=O)O)c2)C(=O)N(CC(=O)c2ccccc2C)c2cc(C)ccc21 (centres undefined) | 227 to 229
35 | CCOC(=O)CC1c2cc(C(F)(F)F)ccc2C(=O)N1CC(F)(F)F (racemic) | 54.5 to 55.5
36 | CONC(=O)C(Oc1cc(OCc2ccsc2)ccc1C#N)c1ccccc1C (racemic) | 155 to 156
37 | COc1ccc(C(=C(c2ccc(OC)cc2)C(F)(F)F)c2ccc(OCCN(C)C)cc2)cc1 | 77 to 79
38 | COCCc1nc(-c2ccc(C(F)(F)F)cc2)ncc1COc1ccc(OC(C)(C)C(=O)O)c(C)c1 | 120
39 | Cc1[nH]c(=O)[nH]c1C(=O)c1ccncc1 | 295 to 296
40 | O=C(O)C(=O)CC(=O)c1cccn1Cc1cc(F)cc(F)c1 | 166 to 168
41 | CC(C)(C)OC(=O)NCC(=O)OCCCCNc1cccc2c1C(=O)c1ccccc1C2=O | 70
42 | CC1(C)COC(c2ccc(CC34CCCCN3C(=O)N(c3cc(Cl)cc(Cl)c3)C4=O)cc2)=N1 (centres undefined) | 87.2
43 | CC(C)CN(C(=O)N(CCCl)N=O)C1O[C@H](CO)[C@H](O)[C@H](O)[C@H]1O (some centres undefined) | 48 to 53
44 | COc1ccc(OC(CCCN2C3CCC2CNC3)c2ccc(C#N)cc2)cc1OC (centres undefined) | 38 to 43
45 | CON(C)C(=O)c1ccc(Cl)c(Cl)c1 | 39.5 to 43.2
46 | Nc1cc2n(n1)CCOC2 | 74 to 76
47 | CCCCCCCCc1nc2c(N)nc3ccccc3c2n1CCOCCCc1ccccc1 | 104
48 | Cc1cc(-c2c[nH]cc2C#N)c(Cl)cc1F | 132 to 133
49 | COc1cc(N)c(Cl)cc1C(=O)NCC1CCN(CCCCOc2ccccc2)CC1 | 71 to 73

— a melting point compilation (Tetko et al.; mined from patent text by program, amines drawn as free bases though some values may be those of a salt)
